Measurements: patent US20110319360A1, “Method of including apoptosis/Cell death in leukemia cell using a purine nucleoside analogue” (U.S. Department of Veterans Affairs, priority 2010, published 2011)
Values joined by “and” are separate entries in the source; they are usually repeats but may differ in a detail not shown here. Identical values can stand only once.

How the values were obtained:
CD3-positive T-cell = experiment: Annexin V apoptosis of normal T-lymphocytes in PBMCs; assay type: cell-based, human; conditions: 72 hours
Experimental: (§1) PBMCs were cultured at 10^6 cells/ml in a 12-well tissue culture plate. Cells were treated for 72 hours with vehicle control or drug for 72 hours, then harvested as above for staining. PBMCs were resuspended at 2×10^5 cells/tube in 100 μl buffer (HBSS, 0.5% bovine serum albumin, 0.1% sodium azide) and incubated for 30 min with CD3-FITC or CD19-FITC antibodies according to the manufacturer's protocol (BD Biosciences). Cells were then incubated with PE-annexin V and 7-AAD (BD Biosciences) in annexin V binding buffer (BD Biosciences) for 15 minutes prior to analysis of apoptosis on the Guava EasyCyte™ Plus system.

CLL cells [1] = experiment: Annexin V / 7-AAD apoptosis assay on CLL cells; assay type: cell-based, human; conditions: for median percent drug-specific apoptosis: 72-hour; for median drug-specific apoptosis: n=43
Experimental: Cells were cultured in either of two different media: Hybridoma SFM with 10% FBS or RPMI 1640 medium (Sigma) supplemented with 5% heat-inactivated human AB serum (Sigma), 50 units/ml penicillin, 50 μg/ml streptomycin, 2 mM L-glutamine, 25 mM HEPES (N2-hydroxyethylpiperazine-N′-2-ethanesulfonic acid), 100 μM MEM non-essential amino acids, and 1 mM sodium pyruvate (GIBCO). CLL cell sensitivity to LMP-420 was not affected by culture media, as determined by direct comparison of the apoptotic effects observed in both media for seven samples. After drug activity in the presence of human AB serum was confirmed, further studies were performed in Hybridoma SFM with 10% FBS.
CLL cells were cultured at 2×10^6 cells/ml in a volume of 100 μl/well in a U-bottom 96-well tissue culture plate (BD Biosciences, San Jose, Calif.) with either vehicle control or with drug. After 24, 48, or 72 hours of incubation, cells were analyzed for apoptosis by three different methods. For the annexin-based assay, 100 μl of Guava Nexin Reagent (Millipore, Billerica, Mass.) was added for 20 min. Cells were analyzed for annexin V-PE and 7-AAD staining with flow cytometric analysis by the Guava EasyCyte™ Plus system (Millipore). To facilitate comparison of samples with different levels of spontaneous apoptosis, drug-specific apoptosis is reported. Drug-specific apoptosis excludes background spontaneous apoptosis and was calculated as follows: 100%×(drug-induced apoptosis−spontaneous apoptosis)/(100−spontaneous apoptosis) (Reference 13).

[2] = Reference 44; cited from earlier work
human hERG = biological target: T1, human hERG (Homo sapiens, UniProt Q12809); experiment: hERG [3H] Astemizole radioligand binding; conditions: 1.5 nM [3H] Astemizole, HEK-293 cells, 60 min, 25° C.; read-out: IC50 for inhibition of radioligand binding to the cardiac potassium channel
T1 construct: host or cells: HEK-293
Experimental: This assay was performed by MDS Pharma Services. Human recombinant HEK-293 cells over-expressing the human hERG receptor were incubated for 60 min at 25° C. with 1.5 nM [^3H] Astemizole in the presence or absence of the indicated concentrations of LMP-420. Nonspecific binding (<10%) was determined by binding of radioligand in 10 μM Astemizole. All samples were determined in duplicate.

[3] = test system: CD34+ hematopoietic progenitor cells (erythroid colonies); experiment: Colony formation assay, erythroid colonies; assay type: cell-based, human
Experimental: CD34^+ hematopoietic progenitor cells were isolated from PBMCs from two healthy donors using the CD34 Microbead Kit (Miltenyi Biotec, Auburn, Calif.). 10^3 CD34^+-enriched cells were cultured in a 35 mm culture plate (1000 cells/plate) with or without LMP-420 or fludarabine in 1.1 ml Human Methylcellulose Complete Media (R&D Systems) according to the manufacturer's protocol. Plates were incubated for 14 days at 37° C. in humidified 5% CO2. Each treatment group was tested in triplicate. Colonies on plates were scored by two independent observers, blinded to the treatment groups, by microscopic evaluation under 10× and 20× power. Colonies were categorized as being of either erythroid or myeloid lineage.

CD19-positive B-cell = experiment: Annexin V apoptosis of normal B-lymphocytes in PBMCs; assay type: cell-based, human; conditions: 72 hours
Experimental: as §1

CLL cells [4] = experiment: MTS cytotoxicity assay on primary CLL cells; assay type: cell-based; conditions: Homo sapiens, CLL cell
Experimental: On the same day that heparin-anticoagulated venous blood was collected from participants, CLL cells were purified by methods described previously (Reference 11). Briefly, CLL cells were isolated from whole blood using the RosetteSep® B-cell enrichment cocktail (Stem Cell Technologies, Vancouver, BC, Canada) together with ficoll-Hypaque density gradient centrifugation. This method yielded CLL cell purity of greater than 95% CD5^+CD19^+ B-cells.
2.5×10^5 CLL cells were incubated in triplicate or quadruplicate in a 96-well tissue culture plate (Costar, Corning, N.Y.) with serial dilutions of LMP-420, fludarabine, and/or recombinant TNF-alpha (R&D Systems, Minneapolis, Minn.) in Hybridoma serum free media (SFM) (GIBCO/Invitrogen, Carlsbad, Calif.) containing 10% heat-inactivated fetal bovine serum (FBS) (Sigma) at 37° C. with 5% CO2. After 72 hours, 20 μl CellTiter 96® AQueous One Solution Cell Proliferation Assay (Promega, Madison, Wis.) MTS (3-(4,5 dimethylthiazol-2-yl)-5-(3-carboxymethoxyphenyl-2-(4-sulfophenyl)-2H-tetrazolium) reagent was added to each well and the absorbance was read at 490 nm on a Thermomax microplate reader (Molecular Devices, Sunnyvale, Calif.). We calculated fractional cytotoxicity as performed previously (Reference 12), comparing absorbance at 490 nm from treated cells to control cells incubated with media alone.
The concentration effective at killing 50% of CLL cells compared to media alone (ED50) was calculated when 50% fractional cytotoxicity occurred within the range of serial dilutions tested (Reference 12). If the ED50 fell below or above this range, it was set to either the lowest or the highest concentration tested, respectively, for the purposes of statistical analyses and graphical representation.

T1 sequence (Q12809 whole entry): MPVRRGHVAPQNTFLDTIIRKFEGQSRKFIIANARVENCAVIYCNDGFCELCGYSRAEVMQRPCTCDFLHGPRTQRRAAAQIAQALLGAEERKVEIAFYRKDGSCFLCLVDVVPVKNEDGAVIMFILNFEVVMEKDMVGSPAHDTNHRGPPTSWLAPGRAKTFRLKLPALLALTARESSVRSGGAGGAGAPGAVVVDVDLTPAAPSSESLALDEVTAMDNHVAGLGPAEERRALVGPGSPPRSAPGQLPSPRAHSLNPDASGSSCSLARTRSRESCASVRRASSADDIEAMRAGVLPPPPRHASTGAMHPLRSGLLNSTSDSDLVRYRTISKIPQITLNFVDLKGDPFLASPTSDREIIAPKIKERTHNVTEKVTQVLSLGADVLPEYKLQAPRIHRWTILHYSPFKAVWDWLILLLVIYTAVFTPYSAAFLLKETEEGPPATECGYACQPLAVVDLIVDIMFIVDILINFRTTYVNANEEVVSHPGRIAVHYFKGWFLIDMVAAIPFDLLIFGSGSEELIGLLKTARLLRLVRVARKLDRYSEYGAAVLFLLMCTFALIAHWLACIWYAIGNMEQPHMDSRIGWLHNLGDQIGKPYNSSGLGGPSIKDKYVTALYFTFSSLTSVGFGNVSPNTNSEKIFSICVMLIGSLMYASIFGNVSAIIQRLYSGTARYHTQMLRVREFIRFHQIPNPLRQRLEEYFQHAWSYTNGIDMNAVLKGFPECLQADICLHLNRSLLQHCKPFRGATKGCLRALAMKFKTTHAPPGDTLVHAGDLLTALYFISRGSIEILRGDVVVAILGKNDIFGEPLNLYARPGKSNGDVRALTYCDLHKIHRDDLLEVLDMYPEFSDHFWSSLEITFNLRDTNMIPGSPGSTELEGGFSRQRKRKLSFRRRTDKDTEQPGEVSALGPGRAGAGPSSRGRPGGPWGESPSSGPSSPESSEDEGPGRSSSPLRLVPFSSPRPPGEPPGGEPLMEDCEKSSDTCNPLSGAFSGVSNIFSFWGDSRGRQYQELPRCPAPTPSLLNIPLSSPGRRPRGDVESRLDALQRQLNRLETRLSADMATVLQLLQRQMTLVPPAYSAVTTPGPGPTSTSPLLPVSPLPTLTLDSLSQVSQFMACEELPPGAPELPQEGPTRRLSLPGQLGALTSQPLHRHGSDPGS

In the case of `Nc1nc(Cl)c2ncn(CCCCCB(O)O)c2n1` [LMP-420, 2-amino-6-chloro-9-[5(dihydroxyboryl)-pentyl] purine], the “average percent drug-specific apoptosis, T-cells” value (CD3-positive T-cell; 1 μM, n=3) is reported as −1%, the “apoptosis in normal T-lymphocytes” value (CD3-positive T-cell; concentrations up to 90 μM) is reported as “did not induce significant apoptosis” and the “median percent drug-specific apoptosis” value (CLL cells [1]; 5,000 nM, mutated IgVH subgroup (n=30)) is reported as 34%. The “median percent drug-specific apoptosis” value (CLL cells [1]; 5,000 nM, unmutated IgVH subgroup (n=10)) was 59%, the median drug-specific apoptosis (CLL cells [1]; 5,000 nM, 24 hours) was 15% and the median drug-specific apoptosis (CLL cells [1]; 5,000 nM, 48 hours) was 28%. The median drug-specific apoptosis (CLL cells [1]; 5,000 nM, 72 hours) was 32%, the “apoptosis, range” value (CLL cells [1]; 5,000 nM, patients with 11q22 deletion or complex cytogenetics (n=3)) was 13 to 58% and 13-58% and the EC50 (CLL cells [1]; Homo sapiens, CLL cell, 72 hours, five-patient sample set, read-out: mean dose required for 50% drug-specific apoptosis by annexin V staining) was 5000 nM. The “staining indicative of primary necrosis (7-AAD-positive, annexin-V-negative)” value (CLL cells [1]; all samples, 72 hours) was < 2%, the “samples in which apoptosis was induced (49 of 50)” value (CLL cells [1]; highest dose (5,000 nM), 72 hours) was 98% and the oral bioavailability [2] was “orally bioavailable”. For the same compound, the tolerability in vivo [2] was “well-tolerated in vivo”, the IC50 (human hERG) was > 100000 nM and the “erythroid colony IC50 relative to CLL ED50” value [3] was “greater than 40 fold”. For the same compound, the IC50 ([3]; Homo sapiens, 336 h, 14 days, healthy donors (n=2), read-out: mean IC50 for normal erythroid colony formation) was 10000 nM, the “average percent drug-specific apoptosis, B-cells” value (CD19-positive B-cell; 1 μM, n=3) was 11% and the “apoptosis in normal B-lymphocytes” value (CD19-positive B-cell; concentrations up to 90 μM) was “did not induce significant apoptosis”. It also gave an EC50 (CLL cells [4]; 72 h, five patients of the nucleosome ELISA set, 72 hours, read-out: mean ED50, fractional cytotoxicity by MTS) of ~0.85 µM, an EC50 (CLL cells [4]; 72 h, primary CLL cells, 72 hours, MTS, mean of 35 samples, read-out: mean concentration required to induce 50% cytotoxicity (ED50)) of 0.245 µM and an EC50 (CLL cells [4]; CLL samples with favorable risk cytogenetic aberrations, n=27, read-out: median MTS ED50) of 0.162 µM. For the same compound, the EC50 (CLL cells [4]; CLL samples with favorable risk cytogenetic aberrations, n=27, read-out: range of MTS ED50) was 0.027 to 2.52 µM, the EC50 (CLL cells [4]; CLL samples with poor risk cytogenetic aberrations, n=5, read-out: median MTS ED50) was 0.332 µM and the EC50 (CLL cells [4]; mean value from the MTS experiments, read-out: ED50 (μM), CLL) was 0.25 µM.
